Experimental findings from patent US20070218086A1, “Adjuvant Composition and Methods for Its Use” (priority 2004, published 2007) are described below.

Test [1] has as its system primary polyclonal human Vγ9/Vδ2 T cells. Kind of test: TNFα release assay (cytokine release assay). The format is cell-based. As to conditions: T-cell, 24 h, read-out: in vitro EC50. The procedure: Cells (primary polyclonal human Vγ9/Vδ2 T cells which had been expanded in vitro and stored frozen at day 12-15 of expansion) are thawed and rinsed them twice and centrifuged. Upon elimination of supernatant and resuspension of cells, cells are incubated for 24h at 37° C. in the presence of IL2 100 UI/ml (fmal concentration). Cells are washed and centrifuged, following which the supernatant is eliminated and the cells are resuspended and adjusted to the adequate final concentration. Cells are added to the wells of a 96-well plate.
To one row of wells are added a standard diluation series of 3-(bromomethyl)-3-butanol-1-yl-diphosphate (BrHPP). Compounds to be tested, in this case CHDMAPP and HDMAPP are added to experimental wells, after several dilutions.
Full plates are incubated 24 hours at 37° C. for stimulation of the γδ cells with the BrHPP standard as well as isopentenyl pyrophosphate (IPP) for comparison, and test compounds CHDMAPP and HDMAPP. After this time, 100 μl of culture supernatant is taken for TNFα dosage. Measurement of the released TNFa dosageis performed as described by the manufacturer's instruction in the TNFa enzyme immunoassay kit (ref. 11121, Immunotech-Beckman Coulter). OD at 405 nm is read, the OD being proportional to the concentration of released TNFα in the culture supernatant. The data are processed with the Excel software to compare concentration of test compound versus concentration of TNFα and for the calculation of the EC50 for each test compound.

Test [2] concerns IFNγ, TNF-alpha, IL2, IL4, IL5 and IL6. It is filed as in vivo, monkeys.
The subject of test [3] is Vγ9/Vδ2+ T cell. Kind of test: in vitro Vγ9/Vδ2+ T cell stimulation. The format is cell-based.
The test system of test [4] is γδ T cells. Kind of test: in vivo Vγ9/Vδ2+ T cell stimulation in cynomolgus monkeys.

Usually EC50 stands for the concentration needed to bring the measured effect to its halfway point.

Molecules are shown by their SMILES.

Consider `CC(O)(CBr)CCOP(=O)(O)OP(=O)(O)O` (stereo not drawn) [BrHPP, 3-(bromomethyl)-3-butanol-1-yl-diphosphate, reference compound], for which, in test [1], the EC50 is about 18.6 nM.
As to `C/C(=C\CCP(=O)(O)OP(=O)(O)O)CO` [CHDMAPP, (E)-5-hydroxy-4-methylpent-3-enyl pyrophosphonate], the EC50 in test [1] is about 0.873 nM. The “cytokine production (IFNγ) over that observed with the phosphoantigen alone” value in test [2] (cytokines known to be induced by phosphoantigen alone (IFNγ)) is listed as “large increase of cytokine production”. Further, the “cytokine production over that observed with the Hybrid-I formulation alone” value in test [2] (serum cytokines, 8 monkeys per group, FIG. 3) was “large and statistically significant increase in cytokine production”.
As for `C/C(=C\COP(=O)(O)OP(=O)(O)O)CO` [HDMAPP, (E)-4-Hydroxy-3-methylbut-2-enyl diphosphate], the EC50 is about 0.758 nM in test [1]; about 0.6 nM in test [3]; about 5 pM in test [4] (Macaca fascicularis, T-cell, in cynomolgus monkeys, dosage studies described in co-pending PCT/IB2003/006375). In addition, the “activation of γδ T cells” value in test [4] (administration to cynomolgus monkeys, very low doses) is “strong activation of γδ T cells”.
For the molecule `C=C(C)CCO[P@@](=O)(O)OP(=O)(O)O` [IPP, isopentenyl pyrophosphate, reference compound], in test [1], the half-maximal effective concentration (EC50) is about 31000 nM.
